# In paper PMC10763754 (Science Advances, 2021):
# Entries after “also recorded” stand apart in the source; their conditions may differ. Where two headings read alike, the source gives them in different places.
# Experiments:
# [1] = molecular target: CDC34A-ubiquitin complex (Homo sapiens, UniProt P0CG48+P49427); assay: biochemical; type: binding
# [2] = molecular target: CDC34A (Homo sapiens, UniProt P0CG48+P49427); conditions: cited from earlier work
# CDC34A, sequence (P49427 whole entry, other chains not shown): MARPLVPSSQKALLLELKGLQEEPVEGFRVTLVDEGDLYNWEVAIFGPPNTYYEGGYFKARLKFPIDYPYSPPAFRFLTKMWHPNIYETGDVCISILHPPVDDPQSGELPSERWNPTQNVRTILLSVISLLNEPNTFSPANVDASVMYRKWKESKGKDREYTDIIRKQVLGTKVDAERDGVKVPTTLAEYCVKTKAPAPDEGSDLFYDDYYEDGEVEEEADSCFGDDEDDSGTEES
# CDC34A-ubiquitin complex, sequence (P49427 whole entry, other chains not shown): as above
Compound,EC50 ([1]; TR-FRET EC50),activity in the TR-FRET assay (in words) [1],further results
CCCCCNC(=O)C1(Cc2ccc(-c3cc(Cl)cc(Cl)c3)cc2)CCN(C(=O)COC)CC1 [2ak],26 µM,,
COCC(=O)N1CCC(Cc2ccc(-c3cc(Cl)cc(Cl)c3)cc2)(C(=O)NC[C@@H](O)CO)CC1 [2au],,abrogated activity; also recorded: complete loss of activity,
COCC(=O)N[C@@H](Cc1ccc(-c2cc(Cl)cc(Cl)c2)cc1)[C@H](O)[C@@H](O)C(=O)O [CC0651],,,potency of CC0651 in vitro [2]: ~ 5 μM
CCNC(=O)C1(Cc2ccc(-c3cc(Cl)cc(Cl)c3)cc2)CCN(C(=O)[C@@H]2CCCO2)CC1 [2fb],17 to 23 µM,,
CCNC(=O)C1(Cc2ccc(-c3cc(Cl)cc(Cl)c3)cc2)CCN(C(=O)[C@H]2CCCO2)CC1 [2eb],17 to 23 µM,,
CCNC(=O)C1(Cc2ccc(-c3cc(Cl)cc(Cl)c3)cc2)CCN(C(=O)OCC(C)C)CC1 [2db],0.4 µM,,fold increase in TR-FRET potency relative to parent 2ab [1]: 10 fold
COCC(=O)N1CCC(Cc2ccc(-c3cc(Cl)cc(Cl)c3)cc2)(C(=O)N2CCCC2)CC1 [2aα],3 µM,,
COCC(=O)N1CCC(Cc2ccc(-c3cc(Cl)cc(Cl)c3)cc2)(C(=O)N2CCCCC2)CC1 [2aη],1 µM,,
CCNC(=O)C1(Cc2ccc(-c3cc(Cl)cc(Cl)c3)cc2)CCN(C(=O)c2ccccc2)CC1 [2gb],2 µM,,
CCC(=O)NC1(Cc2ccc(-c3cc(Cl)cc(Cl)c3)cc2)CCN(C(=O)COC)CC1 [3b],,abolished TR-FRET activity,
CCCNC(=O)C1(Cc2ccc(-c3cc(Cl)cc(Cl)c3)cc2)CCN(C(=O)COC)CC1 [2ae],4 µM,,
COCC(=O)N1CCC(Cc2ccc(-c3cc(Cl)cc(Cl)c3)cc2)(C(=O)NC[C@@H](C)O)CC1 [2at],,abrogated activity; also recorded: complete loss of activity,
COCC(=O)N1CCC(Cc2ccc(-c3cc(Cl)cc(Cl)c3)cc2)(C(=O)N2CCOCC2)CC1 [2aζ],3 µM,,
COCC(=O)N1CCC(Cc2ccc(-c3cccc(C)c3)cc2)(C(=O)NC(C)C)CC1 [compound 1],,,EC50 [1]: 327 µM; fold worse than CC0651 in the TR-FRET screen assay [1]: 10 fold
COCC(=O)N1CCC(Cc2ccc(-c3cc(Cl)cc(Cl)c3)cc2)(C(=O)NCCO)CC1 [2ai],,abrogated activity; also recorded: complete loss of activity,
CCNC(=O)C1(Cc2ccc(-c3cc(Cl)cc(Cl)c3)cc2)CCN(C(=O)COC)CC1 [2ab],4 µM,,fold improvement in TR-FRET potency compared to hit 1 [1]: > 80 fold
COCC(=O)N1CCC(Cc2ccc(-c3cc(Cl)cc(Cl)c3)cc2)(C(=O)NC(C)C)CC1 [2aa],12 µM,,fold improvement in TR-FRET potency compared to hit 1 [1]: 27 fold

# More lines, main results first:
EC50 ([1]; TR-FRET EC50),activity in the TR-FRET assay (in words) [1],Compound,further results
7 µM,,COCC(=O)N1CCC(Cc2ccc(-c3cc(Cl)cc(Cl)c3)cc2)(C(=O)NCC2CC2)CC1 [2ah],
2 µM,,CCNC(=O)C1(Cc2ccc(-c3cc(Cl)cc(Cl)c3)cc2)CCN(C(=O)CCOC)CC1 [2cb],
,completely inactive,COCC(=O)N1CCC(O)(c2ccc(-c3cc(Cl)cc(Cl)c3)cc2)CC1 [compound 6],
,lacked activity,COCC(=O)N1CCC(Cc2ccc(-c3cc(Cl)cc(Cl)c3)cc2)(C(N)=O)CC1 [2ac],
,abolished activity,Cc1nnc(C2(Cc3ccc(-c4cc(Cl)cc(Cl)c4)cc3)CCN(C(=O)COc3ccccc3)CC2)o1 [4b],
20 µM,,CNC(=O)C1(Cc2ccc(-c3cc(Cl)cc(Cl)c3)cc2)CCN(C(=O)COC)CC1 [2ad],
,abolished TR-FRET activity,COCC(=O)N1CCC(Cc2ccc(-c3cc(Cl)cc(Cl)c3)cc2)(NC(C)=O)CC1 [3a],
5 µM,,COCC(=O)N1CCC(Cc2ccc(-c3cc(Cl)cc(Cl)c3)cc2)(C(=O)NC2CC2)CC1 [2al],
,complete abrogation of activity,CCCCCN1CCC(Cc2ccc(-c3cc(Cl)cc(Cl)c3)cc2)(C(=O)OCC)CC1 [compound 7],
,abolished activity,COCC(=O)N1CCC(Cc2ccc(-c3cc(Cl)cc(Cl)c3)cc2)(c2nnc(C)o2)CC1 [4a],
15 µM,,COCC(=O)N1CCC(Cc2ccc(-c3cc(Cl)cc(Cl)c3)cc2)(C(=O)NC(C)(C)C)CC1 [2as],
,lacked activity,COCC(=O)N1CCC(Cc2ccc(-c3cc(Cl)cc(Cl)c3)cc2)(C(=O)O)CC1 [compound 12],
